Experimental data from patent publication US9023354B2, “Combination therapy with MDM2 and EFGR inhibitors” (priority 2010, dated 2015).
Like-named read-outs stand apart in the source and are kept apart here.

Test system: A431 cells
Assay: A431 cell proliferation assay (MTT), alone and in combination with Tarceva
Type: cell-based
Conditions: for A431 Cell Proliferation CI Value: combination with Tarceva, CI <0.8 indicates synergy, Example 9, Table 7B; for IC50: further studies, Example 9, Table 7A, read-out: A431 Cell Proliferation (IC50 Value)
Experimental: This example describes an assay that measures the ability of compounds to inhibit the proliferation of cultured cells. This assay can also be used to assess whether combining two or more compounds produces additive, synergistic, or antagonistic effects on cell growth.
On day 1, the cells were seeded at 10^3 cells per well in 100 μl of complete media under standard conditions.
On day 2, the cells were washed and 100 μl serum free media was added. The cells were then incubated for at least 2 hours before the addition of compound(s). 20 μl of compound(s) was added to the respective wells and incubated at 37° C., 5% CO2 for 72 hrs.
On day 5, 50 μl of the MTT dye solution was added to each well. The plates were incubated at 37° C., 5% CO2 for 1 hr. The media was then aspirated and the cells were resuspended in […] of DMSO. The plates were allowed to incubate for 5 min at room temperature with gentle shaking.
The absorbance in each well was determined at 560 nm using a Polarstar plate reader.
The A431 cell line over-expresses the EGF receptor, and was utilized to assess the ability of AD4 compounds to inhibit EGF-mediated cell proliferation.

[1] = Homo sapiens, A-431, A431 cells

| Compound | IC50 [1] [nM] | IC50 (A431 cells) [nM] | A431 Cell Proliferation CI Value |
| --- | --- | --- | --- |
| Oc1c(C(Nc2ccc(F)cn2)c2ccc(Cl)c(Cl)c2)ccc2cccnc12 (centres unmarked) [AD4-13113] |  |  | 0.59 |
| COc1ccc(C(Nc2cc(C)c(Cl)cn2)c2ccc3cccnc3c2O)c(OC)c1OC (centres unmarked) [AD4-13196] |  |  | 0.69 |
| Cc1ccnc(NC(c2ccc(C(F)(F)F)cc2F)c2ccc3ccc(C)nc3c2O)c1 (centres unmarked) [AD4-13096] | 3000 |  | 0.61 |
| Cc1ccnc(NC(c2cc(Cl)cc(Cl)c2)c2cc(Cl)c3cccnc3c2O)c1 (centres unmarked) [AD4-13079] | 1800 |  | 0.91 |
| Cc1cccc(NC(c2cc(Cl)cc(Cl)c2)c2cc(Cl)c3cccnc3c2O)n1 (centres unmarked) [AD4-13076] | 1400 |  | 0.71 |
| Oc1c(C(Nc2ccccn2)c2cc(Cl)cc(Cl)c2)ccc2cccnc12 (centres unmarked) [AD4-12914] | 1400 |  | 0.74 |
| Cc1cc(NC(c2cc(Cl)cc(Cl)c2)c2ccc3cccnc3c2O)ncc1Cl (centres unmarked) [AD4-13122] | 1600 |  | 0.84 |
| Oc1c(C(Nc2ccc(F)cn2)c2c(F)c(F)cc(F)c2F)ccc2cccnc12 (centres unmarked) [AD4-13070] |  |  | 0.65 |
| Oc1c(C(Nc2ccc(Cl)cn2)c2ccc(Cl)c(Cl)c2)ccc2cccnc12 (centres unmarked) [AD4-13054] |  |  | 0.61 |
| Oc1c(C(Nc2ccccn2)c2cc(Cl)ccc2Cl)ccc2cccnc12 (centres unmarked) [AD4-12910] |  |  | 0.69 |
| COc1ccc(C(Nc2cc(Cl)c(Cl)cn2)c2ccc3cccnc3c2O)cc1OC (centres unmarked) [AD4-13195] |  |  | 0.81 |
| Oc1c(C(Nc2ccc(C(F)(F)F)nc2)c2cc(C(F)(F)F)ccc2Cl)ccc2cccnc12 (centres unmarked) [AD4-13062] |  |  | 0.57 |
| Cc1cccc(NC(c2cccc(C(F)(F)F)c2)c2ccc3cccnc3c2O)n1 (centres unmarked) [AD4-12903] |  |  | 0.67 |
| Cc1cccc(NC(c2ccc3ccc(C)nc3c2O)c2c(Cl)cccc2Cl)n1 (centres unmarked) [AD4-13089] |  |  | 0.67 |
| Cc1cccc(NC(c2cccc(Cl)c2Cl)c2ccc3ccc(C)nc3c2O)n1 (centres unmarked) [AD4-13073] | 1600 |  | 0.85 |
| COc1ccc(C(Nc2cccc(C)n2)c2ccc3cccnc3c2O)cc1O (centres unmarked) [AD4-12909] |  |  | 0.54 |
| Oc1c(C(Nc2cccnc2)c2cccs2)ccc2cccnc12 (centres unmarked) [AD4-10315] |  |  | 0.79 |
| Cc1cc(Cl)cnc1NC(c1cc(C(F)(F)F)ccc1Cl)c1ccc2cccnc2c1O (centres unmarked) [AD4-13058] |  |  | 0.50 |
| Oc1c(C(Nc2ccc(F)cn2)c2ccc(F)cc2Cl)ccc2cccnc12 (centres unmarked) [AD4-13099] |  |  | 0.61 |
| Oc1c(C(Nc2ccccn2)c2ccc(Cl)cc2Cl)ccc2cccnc12 (centres unmarked) [AD4-10484] |  |  | 0.97 |
| Oc1c(C(Nc2ccccn2)c2c(F)c(F)c(OCC(F)(F)F)c(F)c2F)ccc2cccnc12 (centres unmarked) [AD4-13093] | 1800 |  | 0.80 |
| COc1ccc(C(Nc2cc(C)c(Cl)cn2)c2ccc3cccnc3c2O)cc1OC (centres unmarked) [AD4-13194] |  |  | 0.97 |
| Cc1cc(NC(c2ccccc2Cl)c2ccc3cccnc3c2O)ncc1F (centres unmarked) [AD4-13116] |  |  | 0.52 |
| Cc1cccc(NC(c2ccc(OC(F)(F)F)cc2)c2ccc3cccnc3c2O)n1 (centres unmarked) [AD4-12902] |  |  | 0.7 |
| Cc1nc(NC(c2ccc(Cl)c(Cl)c2)c2ccc3cccnc3c2O)c(Cl)cc1Cl (centres unmarked) [AD4-13202] |  |  | 0.87 |
| COc1ccc(C(Nc2cc(Cl)c(Cl)cn2)c2ccc3cccnc3c2O)c(OC)c1OC (centres unmarked) [AD4-13197] |  |  | 0.63 |
| Cc1ccnc(NC(c2ccc3cccnc3c2O)c2c(F)c(F)c(OCC(F)(F)F)c(F)c2F)c1 (centres unmarked) [AD4-13092] | 1500 |  | 0.79 |

Second part, led by results:

| IC50 [1] [nM] | IC50 (A431 cells) [nM] | Compound | A431 Cell Proliferation CI Value |
| --- | --- | --- | --- |
| 920 |  | Oc1c(C(Nc2cc(Cl)ccn2)c2ccc(Cl)c(Cl)c2)ccc2cccnc12 (centres unmarked) [AD4-13069] | 0.91 |
| 740 |  | Oc1c(C(Nc2ccc(Cl)cn2)c2cc(Cl)cc(Cl)c2Cl)ccc2cccnc12 (centres unmarked) [AD4-13111] | 0.95 |
| 5100 |  | Oc1c(C(Nc2ccc(C(F)(F)F)nc2)c2ccc(Cl)c(Cl)c2)ccc2cccnc12 (centres unmarked) [AD4-13064] | 0.64 |
| 2000 |  | Cc1cc(Cl)ccc1NC(c1ccc(Cl)cc1Cl)c1ccc2cccnc2c1O (centres unmarked) [AD4-13201] | 0.82 |
| 1800 |  | Oc1c(C(Nc2ccc(C(F)(F)F)cn2)c2ccc(F)cc2F)ccc2cccnc12 (centres unmarked) [AD4-13029] | 0.83 |
| 1600 |  | Oc1c(C(Nc2ccc(Cl)cn2)c2c(F)cccc2Cl)ccc2cccnc12 (centres unmarked) [AD4-13091] | 0.89 |
| 2100 |  | Cc1cc(Cl)cnc1NC(c1ccc(C(F)(F)F)c(F)c1)c1ccc2cccnc2c1O (centres unmarked) [AD4-13043] | 0.81 |
| 1500 |  | Oc1c(C(Nc2ccc(Cl)cn2)c2cccc(Cl)c2Cl)ccc2cccnc12 (centres unmarked) [AD4-13086] | 0.80 |
| 1800 |  | Cc1cccc(NC(c2cc(Cl)cc(Cl)c2Cl)c2ccc3cccnc3c2O)n1 (centres unmarked) [AD4-13023] | 0.74 |
| 2100 |  | Oc1c(C(Nc2ccc(F)cn2)c2c(F)cccc2Cl)ccc2cccnc12 (centres unmarked) [AD4-13112] | 0.73 |
| 2000 |  | Oc1c(C(Nc2ccc(C(F)(F)F)cn2)c2ccc(Cl)c(Cl)c2)ccc2cccnc12 (centres unmarked) [AD4-13030] | 0.83 |
| 1900 |  | Oc1c(C(Nc2ccc(C(F)(F)F)cn2)c2ccc(C(F)(F)F)c(F)c2)ccc2cccnc12 (centres unmarked) [AD4-13034] | 0.70 |
| 4200 |  | Oc1c(C(Nc2cccnc2)c2cccc(Cl)c2Cl)ccc2cccnc12 (centres unmarked) [AD4-12908] | 0.64 |
| 1900 |  | Cc1cccc(NC(c2ccc(Cl)cc2Cl)c2ccc3ccc(C)nc3c2O)n1 (centres unmarked) [AD4-13082] | 0.90 |
| 1600 |  | Cc1cc(NC(c2ccc(Cl)c(C(F)(F)F)c2)c2ccc3cccnc3c2O)ncc1Cl (centres unmarked) [AD4-13108] | 0.84 |
| 1600 |  | Cc1cc(NC(c2ccc(C(F)(F)F)cc2C(F)(F)F)c2ccc3cccnc3c2O)ncc1Cl (centres unmarked) [AD4-13124] | 0.76 |
| 1600 |  | Oc1c(C(Nc2ccc(C(F)(F)F)nc2)c2ccc(C(F)(F)F)c(F)c2)ccc2cccnc12 (centres unmarked) [AD4-13051] | 0.72 |
| 1600 |  | Oc1c(C(Nc2ccc(F)cn2)c2cc(Cl)cc(Cl)c2)ccc2cccnc12 (centres unmarked) [AD4-13098] | 0.86 |

| IC50 [1] [nM] | IC50 (A431 cells) [nM] | Compound | A431 Cell Proliferation CI Value |
| --- | --- | --- | --- |
| 1500 |  | Oc1c(C(Nc2cc(Cl)ccn2)c2cc(C(F)(F)F)ccc2Cl)ccc2cccnc12 (centres unmarked) [AD4-13060] | 0.76 |
| 1900 |  | Cc1cc(NC(c2ccc(C(F)(F)F)cc2)c2ccc3cccnc3c2O)ncc1Cl (centres unmarked) [AD4-13121] | 0.75 |
| 1400 |  | Oc1c(C(Nc2ccc(F)cn2)c2cccc(Cl)c2Cl)ccc2cccnc12 (centres unmarked) [AD4-13103] | 0.79 |
| 1900 |  | Oc1c(C(Nc2ccc(F)cn2)c2cc(Cl)cc(Cl)c2Cl)ccc2cccnc12 (centres unmarked) [AD4-13132] | 0.82 |
| 1300 |  | Oc1c(C(Nc2ccc(Cl)cn2)c2cc(Cl)cc(Cl)c2)ccc2cccnc12 (centres unmarked) [AD4-13094] | 0.76 |
| 1500 |  | Cc1ccc2ccc(C(Nc3ncc(Cl)cc3C)c3ccc(Cl)cc3Cl)c(O)c2n1 (centres unmarked) [AD4-13200] | 0.97 |
| 1600 |  | Cc1cc(NC(c2ccc(F)cc2Cl)c2ccc3cccnc3c2O)ncc1F (centres unmarked) [AD4-13115] | 0.74 |
| 5400 |  | Oc1c(C(Nc2ccc(C(F)(F)F)nc2)c2ccc(Cl)cc2Cl)ccc2cccnc12 (centres unmarked) [AD4-13066] | 0.60 |
| 2400 |  | Oc1c(C(Nc2ncc(Cl)cc2F)c2cccc(C(F)(F)F)c2)ccc2cccnc12 (centres unmarked) [AD4-13145] | 0.86 |
| 1500 |  | Oc1c(C(Nc2ccc(Cl)cn2)c2ccc(F)cc2Cl)ccc2cccnc12 (centres unmarked) [AD4-13088] | 0.76 |
| 1400 |  | Cc1cccc(NC(c2ccc(Cl)cc2Cl)c2ccc3cccnc3c2O)n1 (centres unmarked) [AD4-12911] | 0.76 |
| 1800 |  | Oc1c(C(Nc2ccc(Cl)cn2)c2ccccc2Cl)ccc2cccnc12 (centres unmarked) [AD4-13087] | 0.70 |
|  | 3000 | Cc1cc(Cl)cnc1NC(c1ccc(F)cc1Cl)c1ccc2cccnc2c1O (centres unmarked) [AD4-13198] | 0.87 |
| 1700 |  | Cc1cc(NC(c2ccc3cccnc3c2O)c2c(Cl)cccc2Cl)ncc1F (centres unmarked) [AD4-13125] | 0.70 |
| 1400 |  | Oc1c(C(Nc2ccc(F)cn2)c2cc(Cl)ccc2Cl)ccc2cccnc12 (centres unmarked) [AD4-13102] | 0.75 |
| 1900 |  | Oc1c(C(Nc2ccc(C(F)(F)F)cn2)c2cc(C(F)(F)F)ccc2Cl)ccc2cccnc12 (centres unmarked) [AD4-13056] | 0.63 |
| 860 |  | Cc1cc(NC(c2cc(Cl)cc(Cl)c2)c2ccc3cccnc3c2O)ncc1F (centres unmarked) [AD4-13114] | 0.81 |
| 4400 |  | Oc1c(C(Nc2ccc(C(F)(F)F)nc2)c2ccc(C(F)(F)F)cc2)ccc2cccnc12 (centres unmarked) [AD4-13063] | 0.77 |
